Values joined by “and” are separate entries in the source; they are usually repeats but may differ in a detail not shown here. Identical values can stand only once. Like-named read-outs stand apart in the source and are kept apart here.
What was measured:
C57Bl/6 mice given Con A [1] = assay type: in vivo
C57Bl/6 mice given Con A [2] = assay: Colchicine by gavage once six hours before ConA injection, serum ALT; assay type: in vivo; conditions: for ALT Average: N = 3
Method: Lack of an effect of low dose colchicine (0.5 mg, 3 times a day) as anti-inflammatory agent, while showing beneficial effect of low dose colchicine in diabetes and fatty liver disease. • Mice: C57Bl/6 mice, 11-12 weeks old • Duration: Mice will be administered once Colchicine six hours before ConA • Sacrifice: 14 hours after ConA injection.
Experiment Protocol: • Day 1: Administer all compounds by gavage 300 ul: saline or Colchicine • After 6 hours give Con A by injection IV 500 μg/mouse=20 mg/kg=[…] • Day 2: On the next day: sacrifice all mice • Take blood for serum ALT The results of this experiments are given in the table below and in FIG. 7.

[3] = in vivo; cited from earlier work
mice on a High fat diet = assay: Low dose colchicine in high fat diet model of type 2 diabetes and fatty liver; assay type: in vivo; conditions: colchicine for two weeks, dose that had no anti-inflammatory effect
Method: • Give colchicine at the end of the experiment for two weeks to 4 mice who were on a High fat diet and developed diabetes and fatty liver disease. • Mice are treated with a dose that had no anti-inflammatory effect. • Test for glucose, ALT and cholesterol levels at the end of the two weeks.

[4] = system: PBMC from naïve GD patients; assay: PBMC from Gaucher patients incubated with ConA, IFNg ELISA; conditions: for IFNg ELISA, second value (Conc) / IFNg Conc: Colchicine 0.0625 pg/ml or dexamethasone 250 ug/well
[5] = system: C57 Bl mice receiving CONA; assay: Daily low dose CONA in mice, regular vs irregular dexamethasone administration, serum ALT; assay type: in vivo; conditions: dexamethasone 50 mg/kg per day
Method: Mice: 24 C57 Bl mice, 12 weeks old, n=4/group
All animals received daily low dose CONA 300 μg/mouse daily for 10 days
Dexamethasone daily 50 mg/kg per day
ALT serum levels were monitored as follows

[6] = Patient 1, lymphocytes only 80.9
[7] = Patient 2, lymphocytes only 474.7

**Q.** For `Nc1c(Br)cc(Br)cc1CN[C@H]1CC[C@H](O)CC1` [Ambroxol], which “ALT (IU)” value (C57Bl/6 mice given Con A [1]; Ambroxol 1.4 mg PO, alone or with Colchicine 0.01 mg/kg, control 6068) is on record?
**A.** 4243 IU

**Q.** What about the “ALT Average” value (C57Bl/6 mice given Con A [1]; Ambroxol arm, N = 3, control 6068) of the same molecule?
**A.** 4243

**Q.** And the ALT (C57Bl/6 mice given Con A [1]; single mice, Ambroxol arm, dilution 1/40)?
**A.** 3683 and 4187 and 4859

**Q.** With `COc1cc2c(c(OC)c1OC)-c1ccc(OC)c(=O)cc1[C@@H](NC(C)=O)CC2` [Colchicine] as the molecule, how does the “adjuvant effect on the efficacy of drugs” value (C57Bl/6 mice given Con A [1]; low dose colchicine, summary in words) read?
**A.** can serve as a potent adjuvant to improve the efficacy of drugs

**Q.** And the “ALT Average” value (C57Bl/6 mice given Con A [2]; Low dose, Colchicine 0.005 μg/kg by gavage)?
**A.** 3218

**Q.** And the “ALT Average” value (C57Bl/6 mice given Con A [2]; Regular dose, Colchicine 0.05 μg/kg by gavage)?
**A.** 17134

**Q.** What about the ALT (C57Bl/6 mice given Con A [2]; single mice, Regular dose, Colchicine 0.05 μg/kg by gavage, dilution 1/40) of the same molecule?
**A.** 18946 and 19427 and 13029

**Q.** And the “part of dose excreted unchanged by the kidneys” value [3]?
**A.** 10-20%

**Q.** What about the removal by hemodialysis [3] of the same molecule?
**A.** not removed by hemodialysis

**Q.** What about the “Glucose (mg %)” value (mice on a High fat diet; control 190) of the same molecule?
**A.** 155 mg %

**Q.** And the “ALT (IU)” value (mice on a High fat diet; control 278)?
**A.** 103 IU

**Q.** What about the “Cholesterol (mg %)” value (mice on a High fat diet; control 342) of the same molecule?
**A.** 100 mg %

**Q.** And the “IFNg ELISA, second value (Conc)” value ([4]; P1, lymphocytes only 80.9)?
**A.** 52.3

**Q.** And the “IFNg ELISA, second value (Conc)” value ([4]; P2, lymphocytes only 474.7)?
**A.** 47.57

**Q.** What about the “IFNg Conc” value [4, 6] of the same molecule?
**A.** 52.3

**Q.** What about the “IFNg Conc” value [4, 7] of the same molecule?
**A.** 47.57

**Q.** And the “effect on the inflammatory effect of PBMC from patients with Gaucher disease” value ([4]; summary in words)?
**A.** profound effect on suppressing the inflammatory effect of PBMC

**Q.** For `C[C@@H]1C[C@H]2[C@@H]3CCC4=CC(=O)C=C[C@]4(C)[C@@]3(F)[C@@H](O)C[C@]2(C)[C@@]1(O)C(=O)CO` [Dexamethasone], which ALT serum level ([5]; Day 2, group B, regular 8AM every day) is on record?
**A.** 644.25

**Q.** And the ALT serum level ([5]; Day 2, group C, irregular time of administration)?
**A.** 747

**Q.** What about the ALT serum level ([5]; Day 5, group B, regular 8AM every day) of the same molecule?
**A.** 978.75

**Q.** And the ALT serum level ([5]; Day 5, group C, irregular time of administration)?
**A.** 842.5

**Q.** And the ALT serum level ([5]; Day 10, group B, regular 8AM every day)?
**A.** 1210.25

**Q.** And the ALT serum level ([5]; Day 10, group C, irregular time of administration)?
**A.** 876.75

**Q.** What about the “IFNg ELISA, second value (Conc)” value ([4]; P1, lymphocytes only 80.9) of the same molecule?
**A.** 33.29

**Q.** And the “IFNg ELISA, second value (Conc)” value ([4]; P2, lymphocytes only 474.7)?
**A.** 23.29

**Q.** What about the “IFNg Conc” value [4, 6] of the same molecule?
**A.** 33.29

**Q.** What about the “IFNg Conc” value [4, 7] of the same molecule?
**A.** 23.29
